Reference: PMC9929232, “On-demand male contraception via acute inhibition of soluble adenylyl cyclase” (Nature Communications, 2023)
Where “and” joins values, the source holds several entries; their conditions need not be identical. Identical values can stand only once.

Experiments:
[1] = biological target: T1, purified recombinant human sAC protein (Homo sapiens, UniProt Q96PN6); test: In vitro adenylyl cyclase activity assay (two-column method);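 for cyclase activity (%): 100% equals DMSO vehicle-treated control activity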; type: biochemical; parameters: cyclase activity: unit not given here; conditions: for cyclase activity (%): Fig. 1c normalized replicates; for cyclase activity: Fig. 1c replicates
T1 construct: human sACt protein was incubated
T1 sequence (Q96PN6 1-469 limits assumed): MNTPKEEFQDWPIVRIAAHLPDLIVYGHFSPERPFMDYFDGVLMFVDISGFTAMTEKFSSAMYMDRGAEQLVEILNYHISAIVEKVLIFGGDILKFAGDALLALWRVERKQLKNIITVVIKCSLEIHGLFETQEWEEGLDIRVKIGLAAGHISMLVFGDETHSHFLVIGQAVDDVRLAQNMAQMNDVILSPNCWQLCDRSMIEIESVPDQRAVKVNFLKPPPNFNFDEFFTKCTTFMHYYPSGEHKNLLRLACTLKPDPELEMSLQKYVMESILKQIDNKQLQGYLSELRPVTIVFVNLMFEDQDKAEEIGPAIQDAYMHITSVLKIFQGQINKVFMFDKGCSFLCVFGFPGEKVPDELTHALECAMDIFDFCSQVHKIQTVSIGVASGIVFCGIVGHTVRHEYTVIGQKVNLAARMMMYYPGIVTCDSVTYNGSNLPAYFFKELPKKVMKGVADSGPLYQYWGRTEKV
Procedure: All in vitro adenylyl cyclase activity assays were performed via the “two-column” method measuring the conversion of [α-^32P] ATP into [^32P] cAMP[54], as previously described. Briefly, human sACt protein was incubated in buffer containing 50 mM Tris-HCl, pH 7.5, 4 mM MgCl2, 2 mM CaCl2, 1 mM ATP, 3 mM DTT, 40 mM NaHCO3 in the presence of the indicated concentrations of different sAC inhibitors or vehicle (1% DMSO).

[2] = biological target: T2, immobilized human sAC protein (Homo sapiens, UniProt Q96PN6); test: Surface plasmon resonance binding kinetics;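 note: Reference-channel response subtracted from active-channel response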; conditions: Fig. 1f
T2 construct: recombinant purified His-tagged sACt protein (50 μg/ml)
T2 sequence (Q96PN6 1-469 limits assumed): T1 sequence (Q96PN6 1-469 limits assumed)
Procedure: Association and dissociation rate constants of sAC inhibitors were obtained with a Biacore 8K instrument (Cytiva) using a parallel kinetics protocol. Series S Sensor NTA chips (Cytiva) were prepared by applying recombinant purified His-tagged sACt protein (50 μg/ml) in PBS-P+ buffer (1 mM KH2PO4, 150 mM NaCl, 6 mM Na2HPO4, 0.05% (w/v) P20 Surfactant). The His-tagged sAC protein was captured via Ni^2+-His-tag chelation and covalently immobilized by amine coupling with a 1:1 mixture of 1-ethyl-3-(3-dimethylaminopropyl) carbodiimide and N-hydroxysuccinimide (active channels). After coupling, remaining reactive groups on the chip’s surface were blocked with 1 M ethanolamine followed by 350 mM EDTA to wash away any free Ni^2+. Following preparation, TBS-P+ running buffer (50 mM Tris, 150 mM NaCl, and 0.05% P20 Surfactant) supplemented with 1% DMSO was flowed over the surface of the chip until a stable baseline was obtained. For each sAC inhibitor, which were dissolved in DMSO and diluted in running buffer, increasing concentrations were injected into parallel channels for 120 s at a flow rate of 50 µl/min followed by running buffer for 600 s to allow for dissociation. All experiments included reference channels; i.e., inhibitor run over parallel channels without immobilized protein. […] Curves were fitted, and kon, KD, and koff values were determined using the Biacore 8K Insight Evaluation Software Version 2.0 (Cytiva) and a 1:1 binding kinetics model.

mice = type: in vivo; conditions: for at least 24 hours
[3] = test system: ion channels, GPCRs, kinases, and nuclear receptors; conditions: cited from earlier work
epididymal mouse sperm = test: Ex vivo cAMP generation in epididymal sperm from inhibitor-treated male mice (oral or i.p.)
Procedure: For capacitation, sperm were incubated for 90 min in TYH containing 3 mg/ml BSA and 25 mM NaHCO3 in a 37 °C incubator. To control for the consequences of dilution during isolation of epididymal mouse sperm for ex vivo assays, we assessed the ability of bicarbonate to induce a prototypical pattern of tyrosine phosphorylation (pY) which is a widely used molecular hallmark of capacitation[53]. […] For experiments studying sperm from injected mice, ‘swim out’ was performed in 200 μl TYH, which corresponded to a 1:10 dilution from epididymis (20 μg cauda in 200 μl buffer). Capacitation-induced changes were assessed by adding 50 µl of ‘swim out’ sperm to increasing volumes of capacitating TYH buffer.
Intracellular cAMP levels were quantified using the Direct cAMP ELISA kit (Enzo) as above.

[4] = concentration (uM) -0.52288 [sic]
[5] = concentration (uM) -1.95424 [sic]
[6] = concentration (uM) -2.43136 [sic]
[7] = concentration (uM) -2.90848 [sic]
[8] = concentration (uM) -3.38561 [sic]
[9] = concentration (uM) -3.86274 [sic]
[10] = concentration (uM) -4.33985 [sic]
[11] = concentration (uM) -4.81696 [sic]
[12] = concentration (uM) printed -1.47712

## Nc1nc(Cl)cc(-c2nn(C(F)F)cc2Cc2ccccc2OCCN2CCOC[C@@H]2CO)n1 [TDI-11861]
[1]; [4]
  cyclase activity (%): 0%
  cyclase activity: 2069 and 1544 and 1561.8 and 2385.2 and 2164.1 and 1653.5
[1]; concentration (uM) -1 [sic]
  cyclase activity (%): 1.344% and 1.8728% and 2.004% and 2.905% and 3.587% and 4.384%
  cyclase activity: 2867.6 and 2750.4 and 2889.4 and 3159.9 and 3272.8 and 3037.2
[1]; [5]
  cyclase activity (%): 19.6796% and 15.3927% and 17.558% and 30.5194% and 31.8303% and 33.3011%
  cyclase activity: 13763.6 and 11459.5 and 13193 and 10525 and 12002.6 and 12163.6
[1]; [6]
  cyclase activity (%): 38.6741% and 36.8021% and 41.7291% and 63.9723% and 46.6554% and 57.8417%
  cyclase activity: 25051.1 and 25250.8 and 29205 and 19447.2 and 16584.9 and 19908.8
[1]; [7]
  cyclase activity (%): 59.9199% and 65.2563% and 61.8852% and 88.985% and 69.2179% and 73.6242%
  cyclase activity: 37676.4 and 43580.1 and 42557.3 and 26118.3 and 23558.8 and 24889.9
[1]; [8]
  cyclase activity (%): 101.82% and 89.3095% and 88.0533% and 91.9223% and 87.6768% and 92.6716%
  cyclase activity: 62575.6 and 59074.4 and 59892.2 and 26901.7 and 29264.3 and 30901.4
[1]; [9]
  cyclase activity (%): 102.032% and 91.5857% and 92.0528% and 108.947% and 93.3751% and 103.72%
  cyclase activity: 62701.3 and 60540.7 and 62541.6 and 31442.4 and 31025.6 and 34388.3
[1]; [10]
  cyclase activity (%): 103.469% and 99.6453% and 98.4201% and 105.132% and 92.0891% and 95.6319%
  cyclase activity: 63555.2 and 65732.4 and 66759.6 and 30424.8 and 30628.1 and 31835.7
[1]; [11]
  cyclase activity (%): 100%
  cyclase activity: 61494 and 65960.9 and 67806.2 and 29056.1 and 33073.3 and 33214.3
[1]; [12]
  cyclase activity (%): 6.461% and 6.308% and 6.301% and 11.7225% and 11.6858% and 13.5507%
  cyclase activity: 5908.5 and 5607.6 and 5735.6 and 5511.7 and 5776.1 and 5930.2
[2]; 4 nM, Time 1.8 s
  SPR sensorgram response: 0.8425
[2]; 4 nM, Time 1.9 s
  SPR sensorgram response: 0.8424
[2]; 4 nM, Time 2 s
  SPR sensorgram response: 0.8404
[2]; 12.3 nM, Time 1.8 s
  SPR sensorgram response: 0.7083
[2]; 12.3 nM, Time 1.9 s
  SPR sensorgram response: 0.7083
[2]; 12.3 nM, Time 2 s
  SPR sensorgram response: 0.7083
[2]; 37 nM, Time 1.8 s
  SPR sensorgram response: 0.4389
[2]; 37 nM, Time 1.9 s
  SPR sensorgram response: 0.4389
[2]; 37 nM, Time 2 s
  SPR sensorgram response: 0.4389
[2]; 111 nM, Time 1.8 s
  SPR sensorgram response: 1.6715
[2]; 111 nM, Time 1.9 s
  SPR sensorgram response: 1.6715
[2]; 111 nM, Time 2 s
  SPR sensorgram response: 1.5453
[2]; 333 nM, Time 1.8 s
  SPR sensorgram response: 3.2073
[2]; 333 nM, Time 1.9 s
  SPR sensorgram response: 3.4899
[2]; 333 nM, Time 2 s
  SPR sensorgram response: 3.8103
mice
  abnormal mouse behavior after single oral dose: did not cause any abnormal mouse behavior
[3]
  activity versus 46-member safety panel: no significant activity
Epididymal mouse sperm; 50 mg/kg i.p.
  bicarbonate-induced cAMP response, sperm directly isolated: prevented bicarbonate-induced increase in cAMP
  inhibition of bicarbonate-induced cAMP elevation and motility after ex vivo dilution: persisted following ex vivo dilution
Epididymal mouse sperm; 50 mg/kg oral, 1 hour, cauda sperm
  bicarbonate-induced cAMP response, sperm measured directly: no bicarbonate-induced increase in cAMP
Epididymal mouse sperm; Fig. 3a replicates, 50 mg/kg oral gavage, 100-fold dilution into inhibitor-free media, capacitating relative to non-capacitated, 50 mg/kg
  normalized cAMP, diluted: 1.404 and 1.468 and 0.846 and 0.4392 and 0.6198 and 0.8825 and 1.178 and 0.8649 and 1.043
Epididymal mouse sperm; Fig. 3a replicates, 50 mg/kg oral gavage, capacitating relative to non-capacitated sperm of same mouse, 12 minutes, 50 mg/kg
  normalized cAMP, non-diluted: 1.2234 and 1.098 and 0.3601 and 0.9436 and 0.9025 and 0.6956 and 0.2677 and 0.09176 and 0.3627
Epididymal mouse sperm; Fig. 3c replicates, 50 mg/kg i.p., 100-fold dilution into inhibitor-free media, capacitating relative to non-capacitated, 50 mg/kg
  normalize cAMP, diluted: 0.9454 and 0.4612 and 0.4886 and 0.7809 and 1.256 and 0.4688 and 0.8437 and 0.776 and 0.4914 and 0.7724 and 0.3623
Epididymal mouse sperm; Fig. 3c replicates, 50 mg/kg i.p., capacitating relative to non-capacitated sperm of same mouse, 12 minutes, 50 mg/kg
  normalize cAMP, non-diluted: 0.1221 and 0.9832 and 1.008 and 0.7764 and 0.7982 and 0.2443 and 0.1415 and 0.1173 and 0.5249 and 1.087 and 1.4
